Entries after “also recorded” stand apart in the source; their conditions may differ. Like-named read-outs stand apart in the source and are kept apart here.
Tests used:
hESC [1] = settings: for Rosette: 3 = high number of neural rosettes; for Thickness Epithelium: thicker columnar epithelium of the neural rosette; for Final Score: sum of the parameter scores; for Cell death: 3 = low number of pyknotic nuclei; for No Side Population (OTX2 Neg): score by OTX2 staining: 3 = no detection of OTX2 negative cells, evaluated only in conditions without NES negative cells
Description: The experimental protocol used for neural induction of hESC and subsequent generation and NSC line establishment can roughly be divided in three main stages—Neuroectoderm induction and NECS formation; NECS plating and rosette formation and finally NSC line establishment by replating the cells in expansion media.
50-90% confluent hESC were washed with PBS^−/− and dissociated from monolayer culture with TrypLE™ Select (Gibco) at 37° C. for approximately 5 minutes to obtain single-cell suspension. The single-cell suspension of hESCs was resuspended in NutriStem® supplemented with 10 μM ROCKi (Y-27632) and as standard 1 mL with cell densities of 1×10^5-2×10^5 cells per mL was seeded into one single well (around 3.5 cm^2) of a 12-well plates (Day 0).
At day 1, around 50% of the medium was exchanged with NECS media consisting of DMEM/F12 GlutaMAX™ supplement (Gibco™) supplemented with 20 U/mL Penicillin-streptomycin, 1% N-2 Supplement (Gibco™) and GW788388 or RepSox in different concentrations, without ROCKi. To initiate rotary NECS formation, plates were from day 1-6 placed on a Multi Bio 3D Mini-shaker (BioSan) at different speeds, timeslots, levels and angle. As an example, one optimal condition was:
The NECS media was exchanged everyday by removing half of the media and adding fresh medium. […] After 6 days in dynamic conditions all NECS were collected and plated in 2D on 48-well plates, laminin coated. For coating, 1:50 natural mouse laminin (L2020-1MG, Sigma-Aldrich, 1 mg/ml) was performing fine, but the type of laminin can be also extended to LN-521 or LN-511 (BioLamina). From day 7 to day 10, now in attachment in 2D, all media was removed, and cells were re-feed with fresh NECS media. An example of the different steps can be shown in FIG. 4, with images after Day 3 (dynamic suspension), Day 8 (neural rosettes in 2D) and Day 10 (before single cell dissociation).
The parameters measured were cell death, rosette formation, a monolayer formation in 2D, thickness of the epithelium formed in the rosette structure, and the absence of side population (all cells being NES and OTX2 positive), i.e. purity of the cell population
Cell death: Monitored by DAPI (4′,6-diamidino-2-phenylindole) staining. Pyknosis, or karyopyknosis, is the irreversible condensation of chromatin in the nucleus of a cell undergoing necrosis or apoptosis. After visual inspection under the fluorescent microscope, a score of 0 represent high number of pyknotic nuclei and a score of 3 a low number of pyknotic nuclei.
Rosette numbers: Monitored by DAPI, ZO1 and NES stainings. After visual inspection under the fluorescent microscope, a score of 0 represent low number of neural rosettes nuclei and a score of 3 a high number of rosettes.
Monolayer formation: Monitored by brightfield and DAPI staining. After visual inspection under the microscope, a score of 3 represent a flat monolayer of cells after NECS attachment.
Thickness of the rosette columnar epithelium: Monitored by DAPI staining. After visual inspection under the fluorescent microscope, a score of 3 represent a broader, thicker columnar epithelium of the neural rosette.
Side population: Monitored by specific stainings of NES and OTX2. After visual inspection under the fluorescent microscope, a score of […] represents no detection of NES negative cells. Only in conditions without NES negative cells, the OTX2 population was evaluated. In those cases, a score of 3 represents no detection of OTX2 negative cells.

hESC [2] = test: Differentiation protocol for NECS and rosette formation (brightfield, NES/ZO1 staining); type: cell-based, human; settings: for neural rosette formation, RepSox compared to GW788388: hESCs treated, NES and ZO1 staining (FIG. 6); for morphology of NECS: suspension culture, brightfield (FIG. 3)
Excerpt: As an example, one optimal condition was:

[3] = score by DAPI, ZO1, NES staining: 0 = low number, RepSox 25 μM, LY2157299 10 μM, TEW-7197 10 μM, GW788388 10 ng/ml, SB525334 10 μM, SB431542 10 μM, SB431542+LDN 10 μM+10 μM, LY2109761 2 μM
[4] = score by DAPI: 3 = broader, RepSox 25 μM, LY2157299 10 μM, TEW-7197 10 μM, GW788388 10 ng/ml, SB525334 10 μM, SB431542 10 μM, SB431542+LDN 10 μM+10 μM, LY2109761 2 μM
[5] = score by NES staining: 6 = no detection of NES negative cells, RepSox 25 μM, LY2157299 10 μM, TEW-7197 10 μM, GW788388 10 ng/ml, SB525334 10 μM, SB431542 10 μM, SB431542+LDN 10 μM+10 μM, LY2109761 2 μM
[6] = score by brightfield and DAPI: 3 = flat monolayer of cells after NECS attachment, RepSox 25 μM, LY2157299 10 μM, TEW-7197 10 μM, GW788388 10 ng/ml, SB525334 10 μM, SB431542 10 μM, SB431542+LDN 10 μM+10 μM, LY2109761 2 μM
[7] = RepSox 25 μM, LY2157299 10 μM, TEW-7197 10 μM, GW788388 10 ng/ml, SB525334 10 μM, SB431542 10 μM, SB431542+LDN 10 μM+10 μM, LY2109761 2 μM
[8] = Low concentration (RepSox 0.25 μM, GW788388 0.1 ng/ml, SB525334 0.1 μM), score by DAPI: 0 = high number
[9] = Low concentration (RepSox 0.25 μM, GW788388 0.1 ng/ml, SB525334 0.1 μM), score: 0 = low number
[10] = Low concentration (RepSox 0.25 μM, GW788388 0.1 ng/ml, SB525334 0.1 μM), score: 3 = broader
[11] = Low concentration (RepSox 0.25 μM, GW788388 0.1 ng/ml, SB525334 0.1 μM), score: 3 = flat monolayer of cells after NECS attachment
[12] = Low concentration (RepSox 0.25 μM, GW788388 0.1 ng/ml, SB525334 0.1 μM), score: 6 = no detection of NES negative cells
[13] = Low concentration (RepSox 0.25 μM, GW788388 0.1 ng/ml, SB525334 0.1 μM)
[14] = score by DAPI staining: 0 = high number, RepSox 25 μM, LY2157299 10 μM, TEW-7197 10 μM, GW788388 10 ng/ml, SB525334 10 μM, SB431542 10 μM, SB431542+LDN 10 μM+10 μM, LY2109761 2 μM
[15] = RepSox 25 μM, LY2157299 10 μM, TEW-7197 10 μM, SB431542+LDN 10 μM+10 μM, LY2109761 2 μM

| SMILES | Rosette (hESC [1]; [3]) | Thickness Epithelium (hESC [1]; [4]) | No Side Population (NES Neg) (hESC [1]; [5]) | Monolayer formation (hESC [1]; [6]) | Final Score (hESC [1]; [7]) | Cell death (hESC [1]; [8]) | Rosette (hESC [1]; [9]) | Thickness Epithelium (hESC [1]; [10]) | Monolayer formation (hESC [1]; [11]) | No Side Population (NES Neg) (hESC [1]; [12]) | Final Score (hESC [1]; [13]) | Cell death (hESC [1]; [14]) | neural rosette formation, RepSox compared to GW788388 (hESC [2]) | morphology of NECS (hESC [2]) | No Side Population (OTX2 Neg) (hESC [1]; [15]) | homogeneous population of neural rosettes with NES positive cells and ZO1 in the center of each rosette (hESC [2]; RepSox 25 and 50 μM (FIGS. 7 and 8)) | homogeneous population of neural rosettes with NES positive cells and ZO1 in the center of each rosette (hESC [2]; lower concentrations of RepSox (0.25 μM, 2.5 μM; FIGS. 7 and 8)) |
| --- | --- | --- | --- | --- | --- | --- | --- | --- | --- | --- | --- | --- | --- | --- | --- | --- | --- |
| NC(=O)c1ccc(-c2nc(-c3ccc4c(c3)OCO4)c(-c3ccccn3)[nH]2)cc1 [SB431542, 4-[4-(1,3-benzodioxol-5-yl)-5-(2-pyridinyl)-1H-imidazol-2-yl]benzamide] | 3 | 2 | 0 | 2 | 10 | – | – | – | – | – | – | – | – | – | – | – | – |
| O=C(NC1CCOCC1)c1ccc(-c2cc(-c3cn[nH]c3-c3ccccn3)ccn2)cc1 [GW788388, N-(oxan-4-yl)-4-[4-(5-pyridin-2-yl-1H-pyrazol-4-yl)pyridin-2-yl]benzamide] | 3 | 3 | 0 | 3 | 12 | 2 | 2 | 2 | 3 | 0 | 9 | 3 | only few rosettes are observed | darker and denser core | – | – | – |
| Cc1cccc(-c2n[nH]cc2-c2ccc3ncccc3n2)n1 [RepSox, 2-(3-(6-Methylpyridine-2-yl)-1H-pyrazol-4-yl)-1,5-naphthyridine] | 3 | 2 | 6 | 3 | 20 | – | 3 | 3 | 3 | 0 | 12 | – | superior; also recorded: multiple neural rosettes are observed | more transparent NECS; also recorded: bright cavities | 3 | optimal to obtain an homogeneous population of neural rosettes | less clear effect |
| Cc1cccc(-c2nn3c(c2-c2ccnc4ccc(C(N)=O)cc24)CCC3)n1 [LY2157299, 4-[2-(6-methylpyridin-2-yl)-5,6-dihydro-4H-pyrrolo[1,2-b]pyrazol-3-yl]quinoline-6-carboxamide] | 3 | 3 | 6 | 2 | 17 | – | – | – | – | – | – | 3 | – | – | 0 | – | – |
| c1ccc(-c2nn3c(c2-c2ccnc4cc(OCCN5CCOCC5)ccc24)CCC3)nc1 [LY2109761] | 0 | 0 | 6 | 0 | 9 | – | – | – | – | – | – | 0 | – | – | 3 | – | – |
| Cc1cccc(-c2[nH]c(CNc3ccccc3F)nc2-c2ccc3ncnn3c2)n1 [TEW-7197, 2-fluoro-N[[5-(6-methylpyridin-2-yl)-4-([1,2,4]triazolo[1,5-a]pyridin-6-yl)-1H-imidazol-2-yl]methyl]aniline] | 2 | 2 | 6 | 2 | 15 | – | – | – | – | – | – | – | – | – | 3 | – | – |
| Cc1cccc(-c2[nH]c(C(C)(C)C)nc2-c2ccc3nccnc3c2)n1 [SB525334] | 3 | 2 | 4 | 2 | 11 | 2 | 3 | 3 | 2 | 0 | 10 | 0 | – | – | – | – | – |

Reference: patent US20220233602A1, “GENERATION OF NEURAL STEM CELL LINES DERIVED FROM HUMAN PLURIPOTENT STEM CELLS” (Novo Nordisk A/S, priority 2019, published 2022)
